row,Compound,melting point
1,Cc1ccc(C(F)(F)F)cc1-c1ccc(S(=O)(=O)N2c3ccccc3CC2C(=O)NCCOc2ccc(CC(=O)O)cc2)cc1 (centres undefined),80 to 84 °C
2,O=c1cccc(-c2ccc(Cl)cc2)[nH]1,200 to 203 °C
3,CC(=O)CCN(Cc1ccccc1)Cc1ccccc1,58 to 59 °C
4,COc1cc(OC)cc(-c2cc(NC(=O)CC(=O)C(F)(F)F)[nH]n2)c1,119 to 121 °C
5,CC(=O)OC1SCC2C1N(Cc1ccccc1)C(=O)N2Cc1ccccc1 (centres undefined),72 to 74 °C
6,CO[C@]1(c2cnc(S)s2)CCO[C@@H]1C (racemic),126 to 127 °C
7,O=C(O)C1CCCN1c1ncccc1[N+](=O)[O-] (centres undefined),137 to 139 °C
8,CCOC(=O)C=Cc1ccc(OCc2coc(-c3ccccc3)n2)c(OC)c1,128 to 129 °C
9,Cc1c(C)c(C)c2c(c1C)CCCC2,81.5 to 82 °C
10,COc1cc(-c2[nH]c(SC)nc2-c2ccc(F)cc2)ccn1,158 °C
11,c1ccc2c(c1)cc(-c1nnn[nH]1)c1nnnn12,280 to 282 °C
12,O=C(CCCCCBr)Nc1ccc(O)cc1,124 to 125 °C
13,O=C(O)CCC(=O)OCc1ccc(-c2nn(-c3ccc(Br)cc3)c3ccccc23)o1,111 to 113 °C
14,C[C@@H]1CCCN1CCc1ccc2cc(-c3ccc(=O)[nH]n3)ccc2c1,295 to 298 °C
15,CC(=O)N[C@H](CO)C(=O)NCc1ccc(N=[N+]=[N-])cc1,161 to 163 °C
16,O=C(Cl)N1CC(Oc2ccc(F)cc2)C1,44 to 52 °C
17,O=C(NCCCn1cnc(-c2ccccc2)c1)c1ccc(Cl)cc1,103 to 105 °C
18,O=C1c2cccc3cccc(c23)N1CCCl,136 °C
19,CCOC(=O)c1cc([N+](=O)[O-])c(Nc2cccc(C)n2)c(S(N)(=O)=O)c1,203 to 204 °C
20,O=C(O)CN1C(=O)C2C3C=CC(CC3)C2C1=O (centres undefined),142 °C
21,N#Cc1c(C(=O)NC2CC2)cnn1-c1ccc(Cl)cc1,204 to 206 °C
22,O=C(O)CCCCCCCCOc1ccccc1,66.5 to 67.5 °C
23,CC(C)C(=O)Oc1ccc2c(c1)-c1ncc(C(=O)O)c(=O)n1CC2,183 to 185 °C
24,N#CN=C(Nc1ccc(NCCF)nc1)Oc1ccccc1,157 to 158 °C
25,CCOC(=O)c1csc(C#Cc2ccc(OC)c(C34CC5CC(CC(C5)C3)C4)c2)c1,88 to 90 °C

row,Compound,melting point
1,CS(=O)(=O)c1ccc(/C(=C\C2CCCCC2)C(=O)O)cc1[N+](=O)[O-],244 to 247 °C
2,Cc1nc2ccc(C#N)cc2[nH]1,238 to 240 °C
3,O=C(O)C1=Cc2cc(S(=O)(=O)NCc3ccccc3)cc(Cl)c2OC1C(F)(F)F (centres undefined),167 to 174 °C
4,Cc1cnc(-c2cc(-c3ccc(Cl)cc3)c(N3CCOCC3)s2)cc1OCC(F)(F)F,177 to 178 °C
5,COc1ccc(NC(=O)c2ccc(C3=NC(C)(C)Cc4cc(OC)c5c(c43)CC(C)(C)O5)cc2)cc1,120 to 122 °C
6,N#Cc1cc(Sc2ccc(Cl)c(Cl)c2)ccc1N,126 to 128 °C
7,CCC(=O)OCC(=O)C1(OC(=S)CC)CCC2C3CC(C)C4=CC(=O)C=CC4(C)C3C(O)CC21C (centres undefined),117 to 119 °C
8,CN(C)Cc1nnc2n1-c1ccccc1C(c1ccccc1Cl)=NC2,143 to 145 °C
9,CC(C)(C)NC(=O)N1CCn2c(C#N)c(-c3cccc(F)c3)c(C(N)=O)c2C1,> 217 °C
10,CCOC(=O)c1nc(-c2cccc([N+](=O)[O-])c2)cs1,149 to 150 °C
11,CCCCc1nc2ccccc2n1Cc1ccc(-c2ccccc2C(=O)OC)cc1,132 to 134 °C
12,O=C(Nc1ccc2oc3c(c2c1)CCCC3)C12CC3CC(CC(C3)C1)C2,247 to 248 °C
13,COc1ccc2c(c1)SSSSS2,97 to 98 °C
14,CCN(CC)CCOc1ccc(Nc2ncc3cc(-c4c(Cl)cccc4Cl)c(=O)n(C)c3n2)cc1,141 to 143 °C
15,CCOC(=O)c1cc(NC(=O)c2ccc(C)cc2)ccc1N,167 to 171 °C
16,OCc1ccc(-c2cn([C@H]3CN4CCC3CC4)nn2)cc1,200 °C
17,O=C(N[C@H](Cc1ccc(C(F)(F)F)cc1)[C@@H](O)c1ccc(F)cc1)c1cccc2cccc(Br)c12 (racemic),191 to 192 °C
18,COc1ccc(C)cc1NC(=O)Nc1ccc(N2CCN(C(=O)Nc3ccc(OCC(O)CO)cc3Cl)CC2)cc1 (centres undefined),134 to 136 °C
19,CC(CNC(=O)C=CC=Cc1ccccc1)C(=O)NO (centres undefined),178 to 179 °C
20,COC(=O)c1csc(C)c1S(=O)(=O)NC(=O)Nc1nc(C)nc(OC)n1,195 °C
21,COC(=O)c1cccc(-c2nc(-c3ccc(C(F)(F)F)cc3)co2)c1,151 to 152 °C
22,CC(C)(C)OC(=O)NCCCCn1c(-c2ccccc2)cc2ccc(C(=O)c3cc(CC(=O)O)c(-c4ccccc4)s3)cc21,167 to 169 °C
23,CCC(=O)NCCC1CCc2ccn3nc(C)cc3c21 (centres undefined),100 to 102 °C
24,CCCn1nc2c(N)nc3ccccc3c2c1CCCCO,135 to 136 °C
25,CC(=O)NC(C)Cc1cc(C)c(C)cc1CC#N (centres undefined),140 to 141 °C

row,Compound,melting point
1,CCCc1c(O)c(Br)cc(C(C)=O)c1O,67 °C
2,Cc1nc(CO)c(CO)[nH]1,182 °C
3,CCOC(=O)C1CC(=O)C(NC(C)=O)=C(O)C1 (centres undefined),112 to 114 °C
4,COc1ccccc1N1CCN(Cc2ccccc2CCC(=O)O)CC1,155 to 158 °C
5,CC1(C)C(=O)Nc2ccc(C(=O)O)cc21,> 250 °C
6,Fc1ccc(C2Cc3cnc(NCCCN4CCCCC4)nc3-c3ccccc32)cc1 (centres undefined),60 to 62 °C
7,O=C(NCc1ccccc1)Nc1ccc(CN2C(=O)[C@H]3CCC[C@H]3N(C(=O)CN3C(=O)c4ccccc4C3=O)c3ccccc32)cc1 (relative stereo),169 to 171 °C
8,CCCn1c(=O)[nH]c2ccc(C(=O)c3nc(Br)c4ccccn34)cc2c1=O,322 °C
9,Cc1ccccc1-c1nc(OCCN(C)C)ncc1N(C)C(=O)C(C)(C)c1cc(C(F)(F)F)cc(C(F)(F)F)c1,140 to 141 °C
10,Cc1ccc(N2C=NC3CCCCC3C2=O)cc1 (centres undefined),79 to 82 °C
11,Nc1ccc(-c2ccc(Cl)cc2)c(Cl)n1,178 to 182 °C
12,CCC(=O)c1cccc2nc3n(c12)CCCN3c1ccc(Cl)cc1Cl,195 to 196 °C
13,CC(=O)NCCCc1c(Cl)ccc2occc12,82 to 83 °C
14,C#CCOc1nc(Nc2cc(N)cc(C(=O)OC)c2)ncc1Br,208 to 209 °C
15,CCN(CC)c1ccc(-c2cc(-c3ccc(C(=O)O)cc3)ccc2O)cc1C(C)(C)C,190 °C
16,CN(C)c1ccc(CNC(=O)[C@@H](Cc2ccccc2)NC(=O)CCC(=O)O)cc1,194 to 196 °C
17,Cc1ccc(-n2cc(-c3cccn4nc(Nc5ccc(C6CCN(C(=O)OC(C)(C)C)CC6)cc5)nc34)cn2)cc1,124 to 125 °C
18,Cn1nc2ccccc2c1C(=O)NCCN1CCC(c2ccc(F)cc2)CC1,105 to 107 °C
19,COC(=O)COC1c2ccccc2COc2ccc(OCc3ccc4cc(Cl)ccc4n3)cc21 (centres undefined),144 to 147 °C
20,Cc1cc(-c2ccc(Cl)c(Cl)c2)nc(-c2cccc(-c3ccc(S(N)(=O)=O)s3)c2)n1,238 °C
21,O=C(CCl)c1ccc(-c2ccccc2Cl)cc1,47 °C
22,O=C(NCc1ccc(Cl)cc1)c1ccc2sc(CN3CCOCC3)cc2c1O,200 °C
23,COC(=O)CN1CCCN(c2ccc(-c3ccc(C#N)cc3)cc2)C1=O,145 to 150 °C
24,Oc1ccc(-c2cc3cc(O)ccc3o2)c(-c2ccc(OCc3ccccc3)cc2)c1,186 to 187 °C
25,C[C@@H](NC(=O)c1csc(-c2ccc(C(F)(F)F)cc2)n1)[C@](O)(Cn1cncn1)c1ccc(F)cc1F,167 to 168 °C

row,Compound,melting point
1,CCOC(=O)c1cccc2c1Nc1ccc(C(=O)c3ccccc3)cc1N2C,139 to 141 °C
2,COc1nc2cc(Cl)c(C)c(N)c2nc1OC,181 to 182 °C
3,Cc1cc(-c2cc(C(F)(F)F)n3cnc(-c4cccnc4)c3n2)ccc1Cl,210 °C
4,CCOc1c(-c2ccc(O)c(OC)c2)oc2cc(OC)cc(O)c2c1=O,168 to 169 °C
5,COc1ncc(OC)c(Cl)n1,78 to 80 °C
6,CCn1ncc2cc3c(nc21)CCc1ccccc1C3=O,88 to 90 °C
7,Cc1ccc(-c2nnc(N3CCN(c4ccc(O)cc4)CC3)c3ccccc23)cc1,265 to 266 °C
8,Cc1ccccc1-c1ncc(NC(=O)OCc2ccccc2)c(=O)n1CC(=O)NC(Cc1ccccc1)C(=O)C(F)(F)F (centres undefined),127 to 129 °C
9,Cc1ccnc(C(=O)c2[nH]c3cc(Cl)ccc3c2NC(=O)CN(C)C)c1,193 to 194 °C
10,COC(=O)c1cc2c3ccccc3nc(C)n2n1,155 to 156 °C
11,O=C(O)c1cc2cc([N+](=O)[O-])cc(O)c2o1,294 °C
12,CC(CCC(=O)O)c1ccc2c(c1)C(=O)c1ccccc1CO2 (centres undefined),120 to 124 °C
13,CC(=O)N(C(C)=O)c1ccc(C2=NN(C(C)=O)C(C)Cc3cc4c(cc32)OCO4)cc1 (centres undefined),224 to 227 °C
14,FC(F)Oc1ccc(-c2nc3ccc(OC(F)(F)F)cc3[nH]2)cc1,185 to 187 °C
15,COc1ccc(N2CCN(c3c(C)c4c(c(C(C)O)c3C)OC(C)(C)C4)CC2)cc1 (centres undefined),183 to 186 °C
16,CC(C)(C)S(=O)(=O)CS(=O)(=O)C(C)(C)C,152 to 155 °C
17,C[C@H]1N(S(C)(=O)=O)CO[C@@]1(Cn1cncn1)c1ccc(Cl)cc1Cl (relative stereo),167 to 172 °C
18,O=C(CN1CC(c2ccc(F)cc2)CC1=O)ON1C(=O)CCC1=O (centres undefined),120 to 123 °C
19,O=C1c2ccccc2-c2c1[nH]c(=O)c1ccccc21,> 300 °C
20,CS(=O)(=O)c1ccc(C(=O)Nc2ccc(Cl)c(-c3ccc(OCCCCCCC(=O)NO)cn3)c2)c(Cl)c1,140 to 145 °C
21,CC(=O)c1ccc(OCc2ccccc2)c(CCCc2ccccc2)c1O,115 to 116 °C
22,Cc1ccc(N2C(=O)C(O)=C(C(=NOCC(=O)O)c3ccc(C(C)C)cc3)C2c2ccc(OC(F)(F)F)cc2)nn1 (centres undefined),227 °C
23,COc1ccc2c(c1)C(=O)CC1(CCN(SCCc3cc(=O)n(C)c(=O)n3C)CC1)O2,191 to 194 °C
24,Cc1ncccc1CCCC(C)NC(=O)C(O)c1ccccc1 (centres undefined),133 to 134 °C
